Laboratory results taken from patent US20240252508A1, “Novel glucose uptake inhibitors for use in the treatment of cancer” (NOVELYEAST BV, priority 2021, published 2024).
Entries after “also recorded” stand apart in the source; their conditions may differ. Where two headings read alike, the source gives them in different places.

Legend:
[1] = tested on: A549 lung adenocarcinoma cells; assay: A549 cell proliferation / growth inhibition; assay type: cell-based, human; conditions: 1 mM glucose; for Potency in reducing maximal growth rate of A549 cells: 6.25-50 μM
Outline: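 A549 growth screened in RPMI with 1 mM glucose, compounds at 50 μM; cell number from counts of Hoechst-stained nuclei after 3 days. Growth curves also followed by IncuCyte phase-contrast confluency over 3–5 days (1000–1500 cells/well), DMSO ≤0.1%, ≥4 technical repeats.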

[2] = tested on: KMS-12-PE multiple myeloma cells; assay: Steady-state glucose consumption and lactate production in KMS-12-PE cells; assay type: cell-based, human; conditions: 25 μM, 1 mM glucose, 8 h
Protocol: (§1) The influence of WBC compounds on the steady-state glucose consumption rate was studied in the A549 adenocarcinoma and KMS-12-PE multiple myeloma cell lines. As such, different parameters needed to be optimized depending on whether cells were adherent or in suspension. As such, A549 cells were incubated at 125,000 cells/well in a 24-well plate in 300 μL RPMI medium for 8 h. For the KMS-12-PE cell line, 100,000 cells/well were incubated in 100 μL RPMI medium in a 96-well plate for 8 h. Medium was collected, spun down and HPLC-analyzed for measuring glucose and lactate levels. Metabolite levels were corrected for cell number, which always varied little over the span of 8 h. For every condition, at least 4 technical repeats were included.

[3] = tested on: A549 lung adenocarcinoma cells; assay: Steady-state glucose consumption and lactate production in A549 cells; assay type: cell-based, human; conditions: 25 μM, 1 mM glucose, 8 h
Protocol: as §1

[4] = tested on: MCF10A breast epithelia cell line transformed with the H-RAS^V12 allele; assay: MCF10A H-RAS^V12 growth and apoptosis (IncuCyte); assay type: cell-based, human; conditions: 25 μM
Protocol: For both adherent A549 and MCF10Δ H-RAS^V12 cell lines, growth curves were established using the IncuCyte® ZOOM technology. By collecting phase contrast images, the IncuCyte® software provides a calculated confluency percentage from which growth curves can be deducted.
Cells were seeded at a density of 1000-1500 cells/well in a Nunc-Edge™ 96-well plate (Thermo Fisher Scientific) and growth was typically measured over 3 to 5 days. For the measurement of apoptosis induction using the MCF10Δ H-RAS^V12 cell line, the IncuCyte® Caspase-3/7 green dye was added to the medium in the recommended concentration at the beginning of the growth curve experiment. Apoptosis was detected by taking fluorescent images by excitation at 488 nm followed by IncuCyte® software analysis. Cell growth of the KMS-12-PE multiple myeloma cell line, which grows in suspension, was measured by manual cell counting. Cells were initially seeded at a density of 10^4 cells/well and incubated for 4 days after which the cell number was counted. For all cell lines, the same medium used for pregrowth was also used for the growth curve experiment, albeit with different glucose concentrations depending on the experimental design. With compound administration, the final concentration of DMSO never exceeded 0.1%. Typically, at least four technical repeats were included per condition.

[5] = tested on: U266 multiple myeloma cell line; assay: U266 proliferation (cell count); assay type: cell-based, human; conditions: 25 μM, 4 days, RPMI with 1 mM glucose
Protocol: a. Cell count of the U266 multiple myeloma cell line after 4 days of growth on RPMI medium with 1 mM glucose. Cells were treated with either DMSO or 25 μM of WBC-A, -15C, -4C or -11C. Glucose consumption (b.) or lactate secretion (c.) rates are shown for U266 cells incubated in RPMI medium supplemented with 1 mM glucose for 8 h.

[6] = Warbicin toxicity and tolerability in mice; assay type: in vivo, NMRI-nu mice; conditions: for Loss in body weight over 20 days: daily i.p. 5, 10 and 20 mg/kg, nude mice; for AST/ALT ratio vs vehicle: sera after 20 days, 5, 10, 20 mg/kg i.p.; for Blood glucose level vs vehicle: sera post mortem after 20 days, 5, 10, 20 mg/kg i.p.
Protocol: Warbicin in vivo toxicity and tolerability was examined by subjecting NMRI-nu mice to daily intraperitoneal injection of either WBC-A, WBC-15C, WBC-4C or WBC-11C. Compounds were dosed at either 5 mg/kg, 10 mg/kg or 20 mg/kg over a period of 20 days. Three mice were used per condition. To evaluate toxicity, change in body weight was registered daily. As a humane endpoint, mice that lost more than 20% of their original body weight were prematurely sacrificed. An optimal dissolve strategy was developed to administer WBC compounds by intraperitoneal injection. Due to their considerable hydrophobicity, compounds were dissolved in a sterilized 1×PBS, 5% DMSO and 5% Tween-80 solution. For WBC-A, -15C and -4C, this gives an initial clear solution that gradually changes over time into a homogenous suspension which can still be administered in a reproducible way. For WBC-11C it immediately results in a homogenous suspension.

[7] = tested on: A549 lung adenocarcinoma cells; assay: 2-deoxyglucose uptake in A549 cells; assay type: cell-based, human; conditions: for Type of inhibition of 2-deoxyglucose uptake in A549 cells: Lineweaver-Burk plot analysis
Protocol: Zero-trans glucose uptake in A549 cells was approximated by measuring the uptake of [1,2-^3H]2-deoxyglucose. For this purpose, A549 cells were pregrown in RPMI medium containing 10 mM glucose in a 24-well plate to a cell density of around 100,000 cells/well. Prior to adding radioactive label, cells were gently washed twice in Krebs-Ringer-HEPES buffer (50 mM HEPES pH 7.4, 137 mM NaCl, 4.7 mM KCl, […], 1.3 mM MgSO4 and 0.1% w/v BSA) at 30° C. to remove any residual sugar. RPMI medium without sugar containing the compound intended for treatment, was added to the cells for 15 min at 37° C. to allow adequate interaction of the cells with the compound.
The uptake measurement was initiated by adding an equal volume of medium containing radiolabeled 2DG. After 3-4 min, medium was aspirated and cells were gently washed three times with ice-cold Krebs-Ringer-HEPES buffer. Cells were lysed by adding 200 μL of ice-cold 0.1 M NaOH solution and incubating the plate for 10 min at 37° C. Cell lysates were transferred to scintillation vials for subsequent scintillation counting. For blank measurements, cells were incubated with 50 μM Cytochalasin B prior to the uptake measurement.

tps1Δ cells [8] = assay: Growth rescue of tps1Δ strain on glucose (growth curves, 2% galactose medium); assay type: cell-based, S. cerevisiae; conditions: 2.5 mM glucose
Outline: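 tps1Δ yeast pregrown in Complete Synthetic medium with 2% galactose, washed, resuspended to OD 0.1; compounds added 10 min before glucose. Growth followed as OD595 every 30 min at 30 °C in at least three technical replicates.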

tps1Δ cells [9] = assay: Zero-trans glucose uptake in tps1Δ yeast cells; assay type: cell-based, S. cerevisiae; conditions: 2.5 mM glucose, tps1Δ cells
Protocol: Zero-trans uptake of radioactively labeled [U-^14C]glucose, [U-^14C]fructose or [U-^14C]galactose by S. cerevisiae cells was determined in accordance with previous studies^44,66. Cells were grown on different carbon sources depending on the experiment. For measuring glucose uptake activity in the tps1Δ and tps1Δ hxtA strains (FIG. 1b,c), cells were grown on YP medium containing 3% glycerol (measurement of 10s). Typically, for compound characterization and kinetic studies in wild type and tps1Δ strains, cells were (pre)grown on Complete Synthetic medium supplemented with 2% galactose (measurement of 10s). In the experiments on the influence of hexokinase activity on the sugar uptake rate, the measurement duration was shortened to 5s and cells were always grown on YP medium containing 3% glycerol and 2% ethanol. After harvesting, cells were washed twice with ice-cold 25 mM MES-buffer pH 6, and resuspended in their respective medium without sugar to a final concentration of 45 mg (wet weight)/mL. The amount of added tracer was estimated to give a response close to at least 1000 counts per min in order to adequately counter background noise. Cells were first preincubated for 10 min at 30° C. with the compound to acclimate the cells to the temperature and to allow adequate interaction with the compound prior to uptake. Next, hexose sugar was mixed with the cell suspension, which was then incubated for 5 or 10 s, depending on the experiment, after which the cells were rapidly filtered over a glass microfiber filter (Whatman GF/C) and washed three times with ice-cold dH2O. The loaded filter was transferred to a scintillation vial containing 3 mL liquid scintillation cocktail (Ultima-Flo M, Perkin Elmer) and counted using the Hidex 300 SL. Three blank measurements per strain were typically included to account for background signal, for which the cells were first quenched before adding the radioactive label.

| SMILES | Potency in reducing maximal growth rate of A549 cells [1] | Glucose consumption and lactate production in KMS-12-PE cells [2] | Glucose consumption and lactate production in A549 cells [3] | Proliferation of MCF10A H-RAS^V12 cell line on 1 mM glucose [4] | Proliferation of U266 cell line [5] | Weight loss of one single mouse sacrificed at day 19 ([6]; daily i.p. 20 mg/kg) | Other abnormalities at autopsy ([6]; daily i.p. 5, 10, 20 mg/kg, 20 days) | Loss in body weight over 20 days [6] | AST/ALT ratio vs vehicle [6] | Blood glucose level vs vehicle [6] | Ki ([7]; Dixon plot analysis, read-out: Ki (=K′i), 2-deoxyglucose uptake in A549 cells) | Type of inhibition of 2-deoxyglucose uptake in A549 cells [7] | Minimal rescue concentration for growth of tps1Δ cells on 2.5 mM glucose (tps1Δ cells [8]) | IC50 (tps1Δ cells [9]) | Induction of apoptosis (caspase 3/7 dye) in MCF10A H-RAS^V12 cells ([4]; 1 mM glucose) | Body weight drop at 10 and 5 mg/kg around day 5 and 11 ([6]; daily i.p. 10 and 5 mg/kg) | Toxic effects in organs at autopsy, 20 and 10 mg/kg ([6]; daily i.p. 20 and 10 mg/kg, not observed at lower concentrations) | Ki ([7]; Cornish-Bowden plot analysis, printed K′, read-out: K′i, 2-deoxyglucose uptake in A549 cells) | Growth inhibition of A549 cells at the highest concentration ([1]; 50 μM) | Toxic effects in organs at autopsy, 20 mg/kg ([6]; daily i.p. 20 mg/kg, not observed at lower concentrations) |
| --- | --- | --- | --- | --- | --- | --- | --- | --- | --- | --- | --- | --- | --- | --- | --- | --- | --- | --- | --- | --- |
| Cc1nc(NCC(=O)NCc2ccco2)c2c(-c3ccccc3)csc2n1 [WBC-4C] | intermediate potency | inhibited | inhibited | highest potency | inhibit proliferation | 20% | No other abnormalities | no significant loss in body weight; also recorded: No significant difference | No significant difference | No significant difference | 26.8 µM | noncompetitive |  |  |  |  |  |  |  |  |
| Cc1nc(SCC(=O)c2ccc3c(c2)NC(=O)CO3)c2c(-c3cccs3)csc2n1 [WBC-11C] | most | inhibited | inhibited | highest potency | inhibit proliferation |  |  | no significant loss in body weight; also recorded: No significant difference | No significant difference | No significant difference |  | uncompetitive | 50 µM | 44 µM | strong induction of apoptosis | small transient drop | toxic effects were seen in the liver and other organs | 7.53 µM |  |  |
| Cc1nc(NCC(=O)Nc2ccccc2Br)c2c(-c3cccs3)csc2n1 [WBC-15C] | least potent | inhibited | inhibited |  | inhibit proliferation |  |  | no significant loss in body weight; also recorded: No significant difference | No significant difference | No significant difference |  | competitive |  |  |  |  |  |  | failed to cause complete inhibition | toxic effects were seen in the liver and other organs |
